# In PMC3399817 (PLoS ONE, 2012):
# Assays:
# Test in all cases: KINOMEscan
# Type in all cases: binding
# [1] = biological target: T1, MAP4K2 (Homo sapiens, UniProt Q12851); settings: for % binding compared to no inhibitor control: MAP4K2, 1 uM
# T1 construct: purchased Ambit KINOMEscan (DiscoverX)
# T1 sequence (Q12851 1-820): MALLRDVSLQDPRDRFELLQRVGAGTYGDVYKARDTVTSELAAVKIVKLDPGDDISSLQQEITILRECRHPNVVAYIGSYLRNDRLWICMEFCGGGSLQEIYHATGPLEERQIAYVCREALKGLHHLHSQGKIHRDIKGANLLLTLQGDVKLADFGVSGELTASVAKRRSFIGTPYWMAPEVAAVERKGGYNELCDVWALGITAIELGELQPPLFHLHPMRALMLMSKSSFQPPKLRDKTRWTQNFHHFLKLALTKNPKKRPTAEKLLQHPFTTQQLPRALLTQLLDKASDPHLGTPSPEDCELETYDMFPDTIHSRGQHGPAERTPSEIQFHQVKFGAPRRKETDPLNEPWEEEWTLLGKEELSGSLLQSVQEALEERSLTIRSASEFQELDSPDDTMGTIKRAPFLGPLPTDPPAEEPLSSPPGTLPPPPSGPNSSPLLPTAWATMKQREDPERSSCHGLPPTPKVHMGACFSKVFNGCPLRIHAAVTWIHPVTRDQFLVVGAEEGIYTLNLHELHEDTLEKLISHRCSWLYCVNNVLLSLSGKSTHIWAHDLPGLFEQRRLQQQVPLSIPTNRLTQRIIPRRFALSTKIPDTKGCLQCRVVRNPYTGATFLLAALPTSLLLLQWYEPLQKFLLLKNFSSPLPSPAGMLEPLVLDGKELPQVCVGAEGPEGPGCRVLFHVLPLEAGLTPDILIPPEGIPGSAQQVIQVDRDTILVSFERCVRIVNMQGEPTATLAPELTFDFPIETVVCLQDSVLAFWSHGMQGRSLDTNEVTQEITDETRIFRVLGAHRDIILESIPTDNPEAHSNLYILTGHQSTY
# Procedure: (§1) First, we used Ambit's KINOMEscan™ technology to identify those kinases that are inhibited for substrate binding by the compounds, all assayed at 1 μM. Second, we used Invitrogen's SelectScreen® Biochemical Kinase Profiling Service to determine the in vitro IC50s for the compounds against specific kinases.
# [2] = biological target: T2, EPHA4 (Homo sapiens, UniProt P54764); settings: EPHA4, 1 uM
# T2 construct: purchased Ambit KINOMEscan (DiscoverX)
# Procedure: as §1
# [3] = biological target: T3, CDC2L2 (Homo sapiens, UniProt Q9UQ88); settings: CDC2L2, 1 uM
# T3 construct: purchased Ambit KINOMEscan (DiscoverX)
# Procedure: as §1
# [4] = biological target: T4, ICK (Homo sapiens, UniProt Q9UPZ9); settings: 1 uM
# T4 construct: purchased Ambit KINOMEscan (DiscoverX)
# Procedure: as §1
# [5] = biological target: T5, p38-beta (Homo sapiens, UniProt Q15759); settings: 1 uM
# T5 construct: purchased Ambit KINOMEscan (DiscoverX)
# Procedure: as §1
# [6] = biological target: T6, ERK1 (Homo sapiens, UniProt P27361); settings: ERK1, 1 uM
# T6 construct: purchased Ambit KINOMEscan (DiscoverX)
# T6 sequence (P27361 whole entry): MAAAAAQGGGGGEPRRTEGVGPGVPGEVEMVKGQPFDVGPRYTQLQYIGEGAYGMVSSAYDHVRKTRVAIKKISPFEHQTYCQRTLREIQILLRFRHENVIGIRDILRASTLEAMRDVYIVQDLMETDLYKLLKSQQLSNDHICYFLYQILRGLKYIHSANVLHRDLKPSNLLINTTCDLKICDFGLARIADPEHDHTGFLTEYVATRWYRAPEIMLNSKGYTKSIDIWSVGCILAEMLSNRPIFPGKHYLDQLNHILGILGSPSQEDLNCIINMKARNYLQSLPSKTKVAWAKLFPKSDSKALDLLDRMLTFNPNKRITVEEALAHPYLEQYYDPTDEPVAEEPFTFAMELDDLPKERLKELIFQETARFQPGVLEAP
# Procedure: as §1
# [7] = biological target: T7, CSNK1G1 (Homo sapiens, UniProt Q9HCP0); settings: CSNK1G1, 1 uM
# T7 construct: purchased Ambit KINOMEscan (DiscoverX)
# Procedure: as §1
# [8] = biological target: T8, LZK (Homo sapiens, UniProt O43283); settings: 1 uM
# T8 construct: purchased Ambit KINOMEscan (DiscoverX)
# T8 sequence (O43283 whole entry): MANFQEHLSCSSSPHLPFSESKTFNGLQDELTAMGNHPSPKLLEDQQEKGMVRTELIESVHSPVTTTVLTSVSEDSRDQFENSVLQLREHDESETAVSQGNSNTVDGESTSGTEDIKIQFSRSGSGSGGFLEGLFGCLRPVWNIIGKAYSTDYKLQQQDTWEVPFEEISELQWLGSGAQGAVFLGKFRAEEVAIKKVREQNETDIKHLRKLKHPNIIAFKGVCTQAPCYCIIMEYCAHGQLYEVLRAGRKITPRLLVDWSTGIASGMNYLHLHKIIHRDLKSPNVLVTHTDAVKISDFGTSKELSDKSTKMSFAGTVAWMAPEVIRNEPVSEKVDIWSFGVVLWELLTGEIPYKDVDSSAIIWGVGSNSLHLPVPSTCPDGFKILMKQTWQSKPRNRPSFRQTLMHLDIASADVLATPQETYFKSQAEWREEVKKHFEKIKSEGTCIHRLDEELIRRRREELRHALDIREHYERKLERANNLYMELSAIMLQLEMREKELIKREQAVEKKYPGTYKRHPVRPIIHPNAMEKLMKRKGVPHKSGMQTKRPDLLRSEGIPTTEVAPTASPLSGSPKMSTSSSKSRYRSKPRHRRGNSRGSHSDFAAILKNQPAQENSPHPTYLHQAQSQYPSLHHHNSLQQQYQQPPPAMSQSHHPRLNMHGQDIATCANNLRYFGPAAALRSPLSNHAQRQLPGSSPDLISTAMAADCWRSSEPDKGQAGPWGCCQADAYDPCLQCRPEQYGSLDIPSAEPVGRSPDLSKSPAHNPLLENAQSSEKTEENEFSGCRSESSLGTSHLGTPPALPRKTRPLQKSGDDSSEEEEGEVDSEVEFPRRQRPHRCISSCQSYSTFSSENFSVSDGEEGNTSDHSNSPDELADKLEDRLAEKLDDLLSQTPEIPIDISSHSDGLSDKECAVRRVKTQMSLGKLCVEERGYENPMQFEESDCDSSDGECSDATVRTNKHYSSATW
# Procedure: as §1
# [9] = biological target: T9, AMPK-alpha1 (Homo sapiens, UniProt Q13131); settings: AMPK-alpha1, 1 uM
# T9 construct: purchased Ambit KINOMEscan (DiscoverX)
# Procedure: as §1
# [10] = biological target: T10, HIPK2 (Homo sapiens, UniProt Q9H2X6); settings: for % binding compared to no inhibitor control: HIPK2, 1 uM
# T10 construct: purchased Ambit KINOMEscan (DiscoverX)
# T10 sequence (Q9H2X6 whole entry): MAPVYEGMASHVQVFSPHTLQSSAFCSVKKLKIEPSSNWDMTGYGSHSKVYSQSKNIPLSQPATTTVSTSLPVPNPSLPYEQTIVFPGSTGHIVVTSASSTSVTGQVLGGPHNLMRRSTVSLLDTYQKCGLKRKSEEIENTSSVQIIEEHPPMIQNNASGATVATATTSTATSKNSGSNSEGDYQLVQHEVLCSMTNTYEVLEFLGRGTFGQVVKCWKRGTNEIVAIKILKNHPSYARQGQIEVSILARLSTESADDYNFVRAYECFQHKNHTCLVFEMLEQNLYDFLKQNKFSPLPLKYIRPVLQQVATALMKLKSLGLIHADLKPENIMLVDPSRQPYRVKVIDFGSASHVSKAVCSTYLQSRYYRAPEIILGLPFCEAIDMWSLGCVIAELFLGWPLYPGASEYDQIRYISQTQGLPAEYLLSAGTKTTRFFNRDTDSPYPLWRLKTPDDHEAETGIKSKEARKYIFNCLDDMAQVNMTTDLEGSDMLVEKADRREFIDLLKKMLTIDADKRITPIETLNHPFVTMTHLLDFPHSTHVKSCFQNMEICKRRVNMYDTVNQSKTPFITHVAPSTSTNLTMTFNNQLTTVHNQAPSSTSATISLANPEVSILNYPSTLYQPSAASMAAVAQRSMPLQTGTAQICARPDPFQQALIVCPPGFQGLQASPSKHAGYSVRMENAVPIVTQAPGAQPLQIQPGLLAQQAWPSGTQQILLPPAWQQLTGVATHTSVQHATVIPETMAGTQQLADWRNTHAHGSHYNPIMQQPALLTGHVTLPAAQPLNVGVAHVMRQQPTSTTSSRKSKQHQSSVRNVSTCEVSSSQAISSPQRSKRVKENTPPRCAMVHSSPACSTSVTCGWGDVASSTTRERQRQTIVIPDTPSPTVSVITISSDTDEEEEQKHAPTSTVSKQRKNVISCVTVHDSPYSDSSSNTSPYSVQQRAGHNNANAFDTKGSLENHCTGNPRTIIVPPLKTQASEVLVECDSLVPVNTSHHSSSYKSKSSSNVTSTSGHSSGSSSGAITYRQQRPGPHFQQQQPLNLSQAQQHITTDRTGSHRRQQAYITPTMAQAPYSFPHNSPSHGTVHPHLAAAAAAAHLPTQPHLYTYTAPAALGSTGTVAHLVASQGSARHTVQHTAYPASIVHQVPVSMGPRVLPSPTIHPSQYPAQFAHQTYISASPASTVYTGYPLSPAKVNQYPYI
# Procedure: as §1
# [11] = biological target: T11, STK35 (Homo sapiens, UniProt Q8TDR2); settings: STK35, 1 uM
# T11 construct: purchased Ambit KINOMEscan (DiscoverX)
# Procedure: as §1
# [12] = biological target: T12, EGFR (Homo sapiens, UniProt P00533); settings: 1 uM
# T12 construct: purchased Ambit KINOMEscan (DiscoverX)
# Procedure: as §1
# [13] = biological target: T13, FES (Homo sapiens, UniProt P07332); settings: 1 uM
# T13 construct: purchased Ambit KINOMEscan (DiscoverX)
# T13 sequence (P07332 whole entry): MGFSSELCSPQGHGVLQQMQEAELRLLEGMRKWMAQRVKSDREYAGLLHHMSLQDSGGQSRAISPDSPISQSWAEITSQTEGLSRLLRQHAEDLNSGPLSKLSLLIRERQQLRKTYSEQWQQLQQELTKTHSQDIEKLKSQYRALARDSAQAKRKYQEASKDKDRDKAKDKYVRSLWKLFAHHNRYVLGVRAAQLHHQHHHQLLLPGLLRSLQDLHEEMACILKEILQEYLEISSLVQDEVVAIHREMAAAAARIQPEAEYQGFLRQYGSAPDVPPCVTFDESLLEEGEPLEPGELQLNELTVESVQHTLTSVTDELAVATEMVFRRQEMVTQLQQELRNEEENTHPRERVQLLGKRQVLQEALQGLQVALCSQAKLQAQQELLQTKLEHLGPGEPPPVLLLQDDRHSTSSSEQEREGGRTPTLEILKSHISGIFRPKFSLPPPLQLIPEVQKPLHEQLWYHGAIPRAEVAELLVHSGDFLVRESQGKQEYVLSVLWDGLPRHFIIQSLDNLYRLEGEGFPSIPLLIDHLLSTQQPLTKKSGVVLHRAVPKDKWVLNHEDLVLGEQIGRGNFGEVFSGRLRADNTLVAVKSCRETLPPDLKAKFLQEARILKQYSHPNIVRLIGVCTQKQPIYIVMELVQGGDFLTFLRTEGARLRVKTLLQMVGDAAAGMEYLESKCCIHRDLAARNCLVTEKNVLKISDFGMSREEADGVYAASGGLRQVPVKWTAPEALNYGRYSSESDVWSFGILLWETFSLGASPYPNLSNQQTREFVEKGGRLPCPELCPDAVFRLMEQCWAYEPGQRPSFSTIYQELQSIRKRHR
# Procedure: as §1
# [14] = biological target: T14, ERK5 (Homo sapiens, UniProt Q13164); settings: ERK5, 1 uM
# T14 construct: purchased Ambit KINOMEscan (DiscoverX)
# Procedure: as §1
# [15] = biological target: T15, CDK2 (Homo sapiens, UniProt P24941); settings: CDK2, 1 uM
# T15 construct: purchased Ambit KINOMEscan (DiscoverX)
# Procedure: as §1
# [16] = biological target: T16, RPS6KA1(Kin.Dom.2-C-terminal) (Homo sapiens, UniProt Q15418); settings: 1 uM
# T16 construct: RPS6KA1(Kin.Dom.2-C-terminal); purchased Ambit KINOMEscan (DiscoverX)
# Procedure: as §1
# [17] = biological target: T17, BMPR1B (Homo sapiens, UniProt O00238); settings: 1 uM
# T17 construct: purchased Ambit KINOMEscan (DiscoverX)
# Procedure: as §1
# [18] = biological target: T18, BRSK2 (Homo sapiens, UniProt Q8IWQ3); settings: BRSK2, 1 uM
# T18 construct: purchased Ambit KINOMEscan (DiscoverX)
# Procedure: as §1
# [19] = biological target: T19, YSK1 (Homo sapiens, UniProt O00506); settings: YSK1, 1 uM
# T19 construct: purchased Ambit KINOMEscan (DiscoverX)
# T19 sequence (O00506 whole entry): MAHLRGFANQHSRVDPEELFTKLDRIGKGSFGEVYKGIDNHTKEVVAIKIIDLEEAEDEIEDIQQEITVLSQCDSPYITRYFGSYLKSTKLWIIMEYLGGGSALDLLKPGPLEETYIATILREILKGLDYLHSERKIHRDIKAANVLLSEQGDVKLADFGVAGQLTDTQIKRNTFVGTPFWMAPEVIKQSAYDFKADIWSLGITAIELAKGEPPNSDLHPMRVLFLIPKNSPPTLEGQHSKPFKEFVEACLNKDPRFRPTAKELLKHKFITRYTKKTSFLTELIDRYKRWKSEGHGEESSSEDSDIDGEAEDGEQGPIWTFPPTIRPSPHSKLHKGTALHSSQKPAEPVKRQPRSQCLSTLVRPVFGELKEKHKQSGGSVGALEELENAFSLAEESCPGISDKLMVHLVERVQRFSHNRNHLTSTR
# Procedure: as §1
# [20] = biological target: T20, SNARK (Homo sapiens, UniProt Q9H093); settings: 1 uM
# T20 construct: purchased Ambit KINOMEscan (DiscoverX)
# Procedure: as §1
# [21] = biological target: T21, MET(Y1235D) (Homo sapiens, UniProt P08581, Y1235D); settings: 1 uM
# T21 construct: purchased Ambit KINOMEscan (DiscoverX)
# Procedure: as §1
# [22] = biological target: T22, HIPK1 (Homo sapiens, UniProt Q86Z02); settings: for % binding compared to no inhibitor control: HIPK1, 1 uM
# T22 construct: purchased Ambit KINOMEscan (DiscoverX)
# T22 sequence (Q86Z02 whole entry): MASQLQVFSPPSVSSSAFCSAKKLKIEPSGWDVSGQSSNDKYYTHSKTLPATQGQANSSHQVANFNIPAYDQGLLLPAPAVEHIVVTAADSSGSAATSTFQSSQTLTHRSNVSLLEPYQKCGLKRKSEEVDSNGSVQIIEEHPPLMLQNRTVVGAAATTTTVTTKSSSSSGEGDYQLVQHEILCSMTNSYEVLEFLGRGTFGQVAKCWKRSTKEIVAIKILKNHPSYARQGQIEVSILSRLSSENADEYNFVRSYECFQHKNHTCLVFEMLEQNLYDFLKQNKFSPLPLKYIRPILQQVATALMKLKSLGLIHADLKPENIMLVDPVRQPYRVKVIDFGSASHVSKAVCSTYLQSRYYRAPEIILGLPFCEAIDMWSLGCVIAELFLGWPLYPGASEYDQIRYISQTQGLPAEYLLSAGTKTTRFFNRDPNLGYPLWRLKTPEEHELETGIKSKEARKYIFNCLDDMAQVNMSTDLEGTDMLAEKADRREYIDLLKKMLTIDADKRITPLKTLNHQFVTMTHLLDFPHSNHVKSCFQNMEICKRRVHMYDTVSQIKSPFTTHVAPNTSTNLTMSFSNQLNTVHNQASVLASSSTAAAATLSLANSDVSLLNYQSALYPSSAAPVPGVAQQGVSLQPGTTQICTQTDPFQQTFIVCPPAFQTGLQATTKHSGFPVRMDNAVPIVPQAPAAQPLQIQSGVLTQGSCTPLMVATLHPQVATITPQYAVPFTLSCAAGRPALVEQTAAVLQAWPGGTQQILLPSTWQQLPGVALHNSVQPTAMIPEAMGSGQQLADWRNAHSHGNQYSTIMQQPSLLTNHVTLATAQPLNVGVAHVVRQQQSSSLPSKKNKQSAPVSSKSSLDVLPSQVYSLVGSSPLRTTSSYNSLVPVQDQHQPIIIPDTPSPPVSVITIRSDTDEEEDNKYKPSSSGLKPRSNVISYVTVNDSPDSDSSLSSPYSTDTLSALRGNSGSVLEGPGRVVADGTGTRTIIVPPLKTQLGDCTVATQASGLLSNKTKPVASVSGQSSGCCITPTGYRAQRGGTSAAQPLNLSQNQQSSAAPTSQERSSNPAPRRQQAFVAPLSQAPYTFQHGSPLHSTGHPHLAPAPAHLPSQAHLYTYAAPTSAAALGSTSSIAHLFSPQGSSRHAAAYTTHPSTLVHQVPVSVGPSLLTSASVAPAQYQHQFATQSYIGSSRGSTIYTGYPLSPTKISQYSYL
# Procedure: as §1
# [23] = biological target: T23, MELK (Homo sapiens, UniProt Q14680); settings: 1 uM
# T23 construct: purchased Ambit KINOMEscan (DiscoverX)
# Procedure: as §1
# [24] = biological target: T24, KIT(V559D,T670I) (Homo sapiens, UniProt P10721, T670I/V559D); settings: 1 uM
# T24 construct: purchased Ambit KINOMEscan (DiscoverX)
# Procedure: as §1
# [25] = biological target: T25, KIT(V559D) (Homo sapiens, UniProt P10721, V559D); settings: 1 uM
# T25 construct: purchased Ambit KINOMEscan (DiscoverX)
# Procedure: as §1
# [26] = biological target: T26, SIK (Homo sapiens, UniProt P57059); settings: 1 uM
# T26 construct: purchased Ambit KINOMEscan (DiscoverX)
# Procedure: as §1
# [27] = biological target: T27, MARK3 (Homo sapiens, UniProt P27448); settings: MARK3, 1 uM
# T27 construct: purchased Ambit KINOMEscan (DiscoverX)
# Procedure: as §1
# [28] = biological target: T28, PHKG1 (Homo sapiens, UniProt Q16816); settings: PHKG1, 1 uM
# T28 construct: purchased Ambit KINOMEscan (DiscoverX)
# Procedure: as §1
# [29] = biological target: T29, PDGFRB (Homo sapiens, UniProt P09619); settings: 1 uM
# T29 construct: purchased Ambit KINOMEscan (DiscoverX)
# Procedure: as §1
Compound,% binding compared to no inhibitor control [1],% binding compared to no inhibitor control [2],% binding compared to no inhibitor control [3],% binding compared to no inhibitor control [4],% binding compared to no inhibitor control [5],% binding compared to no inhibitor control [6],% binding compared to no inhibitor control [7],% binding compared to no inhibitor control [8],% binding compared to no inhibitor control [9],% binding compared to no inhibitor control [10],% binding compared to no inhibitor control [11],% binding compared to no inhibitor control [12],% binding compared to no inhibitor control [13],% binding compared to no inhibitor control [14],% binding compared to no inhibitor control [15],% binding compared to no inhibitor control [16],% binding compared to no inhibitor control [17],% binding compared to no inhibitor control [18],% binding compared to no inhibitor control [19],% binding compared to no inhibitor control [20],other results
"COc1ccc(-c2cc3nccn3c(Nc3ncccc3C(N)=O)n2)cc1OC.Cl.Cl [BAY61-3606, 2-[7-(3,4-dimethoxyphenyl)-imidazo [1,2-c]pyrimidin-5-ylamino] nicotinamide dihydrochloride, reference compound]",6%,91%,100%,23%,100%,100%,84%,64%,92%,9%,88%,87%,88%,87%,86%,50%,77%,84%,53%,32%,"% inhibition ATP binding ([1]; MAP4K2, KINOMEscan, 1 μM): 94%; % inhibition ATP binding ([10]; HIPK2, KINOMEscan, 1 μM): 91%; % binding compared to no inhibitor control [21]: 100%; % binding compared to no inhibitor control [22]: 8.8%; % inhibition ATP binding ([22]; HIPK1, KINOMEscan, 1 μM): 91.2%; % binding compared to no inhibitor control [23]: 87%; % binding compared to no inhibitor control [24]: 9.3%; % binding compared to no inhibitor control [25]: 3%; % binding compared to no inhibitor control [26]: 80%; % binding compared to no inhibitor control [27]: 100%; % binding compared to no inhibitor control [28]: 79%; % binding compared to no inhibitor control [29]: 47%"
COc1ccccc1Nc1nc(-c2ccc(OC)c(OC)c2)cc2nccn12 [BAY derivative 6],100%,92%,100%,100%,80%,100%,94%,100%,100%,100%,91%,100%,100%,100%,100%,100%,100%,100%,82%,89%,% binding compared to no inhibitor control [21]: 100%; % binding compared to no inhibitor control [22]: 85%; % binding compared to no inhibitor control [23]: 91%; % binding compared to no inhibitor control [24]: 87%; % binding compared to no inhibitor control [25]: 54%; % binding compared to no inhibitor control [26]: 100%; % binding compared to no inhibitor control [27]: 100%; % binding compared to no inhibitor control [28]: 100%; % binding compared to no inhibitor control [29]: 67%
